Data reported in ChEMBL document CHEMBL1201862, “PubChem BioAssay data set” (2004).
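Cells were grown in 96-well plates and exposed to each compound for 48 hours at five concentrations; endpoints were interpolated linearly between bracketing concentrations, or set to the highest concentration if not reached. GI50 = concentration required for 50% inhibition of growth.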 Activity calls are given as the source filed them. No stated cut-off is given here; in the data, active = GI50 up to about 1.1 µM and inactive = higher.

Key:
Test in all cases: NCI anticancer screen, dose series, 48 h
SK-OV-3 = test system: SK-OV-3
CAKI-1 = test system: CAKI-1
KM12 = test system: KM12
KM-20L2 = test system: KM-20L2
SNB-75 = test system: SNB-75
EKVX = test system: EKVX
SK-MEL-2 = test system: SK-MEL-2
PC-3 = test system: PC-3
MDA-MB-435 = test system: MDA-MB-435
NCI-H522 = test system: NCI-H522
SF-268 = test system: SF-268
IGROV-1 = test system: IGROV-1
UACC-62 = test system: UACC-62
MDA-MB-231 = test system: MDA-MB-231
T47D = test system: T47D
HL-60 = test system: HL-60
OVCAR-3 = test system: OVCAR-3
TK-10 = test system: TK-10
BT-549 = test system: BT-549
HCT-116 = test system: HCT-116

C=C(OC1C(C)=C2C(C1OC(=O)CCCCCCC)C(C)(OC(C)=O)CC(OC(=O)CCC)C1(O)C2OC(=O)C1(C)O)/C(C)=C/C (stereo not given)
GI50 (SK-OV-3): 0.34 µM (active) | GI50 (CAKI-1): 0.0125 µM (active) | GI50 (KM12): 0.0125 µM (active) | GI50 (KM-20L2): 0.0314 µM (active) | GI50 (SNB-75): 0.0125 µM (active) | GI50 (EKVX): 0.0334 µM (active) | GI50 (SK-MEL-2): 0.0125 µM (active) | GI50 (PC-3): < 0.0001 µM (active) | GI50 (MDA-MB-435): < 0.0001 µM (active) | GI50 (NCI-H522): 0.0125 µM (active) | GI50 (SF-268): 0.0125 µM (active) | GI50 (IGROV-1): 0.0125 µM (active) | GI50 (UACC-62): 0.0125 µM (active) | GI50 (MDA-MB-231): < 0.0001 µM (active) | GI50 (T47D): 0.000135 µM (active)

O=C1c2ccccc2C(=O)c2c(/C=C\N3CCCCC3)ccnc21
GI50 (SK-OV-3): 15.7 µM (inactive) | GI50 (HL-60): 3.01 µM (inactive) | GI50 (OVCAR-3): 1.75 µM (inactive) | GI50 (TK-10): 15.2 µM (inactive) | GI50 (BT-549): 0.889 µM (active) | GI50 (CAKI-1): 16.9 µM (inactive) | GI50 (KM12): 3.97 µM (inactive) | GI50 (KM-20L2): 15.5 µM (inactive) | GI50 (SNB-75): 2.01 µM (inactive) | GI50 (EKVX): 15.2 µM (inactive) | GI50 (SK-MEL-2): 3.72 µM (inactive) | GI50 (PC-3): 0.879 µM (active) | GI50 (MDA-MB-435): 0.327 µM (active) | GI50 (NCI-H522): 2.55 µM (inactive) | GI50 (HCT-116): 1.06 µM (active) | GI50 (SF-268): 12 µM (inactive) | GI50 (IGROV-1): 11.1 µM (inactive) | GI50 (UACC-62): 0.659 µM (active) | GI50 (MDA-MB-231): 19.1 µM (inactive) | GI50 (T47D): 2.97 µM (inactive)

NC(=O)c1nnn(Cc2cc(Cl)c(C(=O)c3ccc(Cl)cc3)c(Cl)c2)c1N [CARBOXYAMIDOTRIAZOLE]
GI50 (SK-OV-3): > 38.5 µM (inactive) | GI50 (HL-60): 14.8 µM (inactive) | GI50 (OVCAR-3): 12.3 µM (inactive) | GI50 (TK-10): 20.6 µM (inactive) | GI50 (BT-549): 21.6 µM (inactive) | GI50 (CAKI-1): 12.4 µM (inactive) | GI50 (KM12): 10.4 µM (inactive) | GI50 (KM-20L2): > 9.1 µM (inactive) | GI50 (SNB-75): 32.8 µM (inactive) | GI50 (EKVX): 16.8 µM (inactive) | GI50 (SK-MEL-2): 11.1 µM (inactive) | GI50 (PC-3): 19.5 µM (inactive) | GI50 (MDA-MB-435): 11 µM (inactive) | GI50 (NCI-H522): 19 µM (inactive) | GI50 (HCT-116): 11.1 µM (inactive) | GI50 (SF-268): 13 µM (inactive) | GI50 (IGROV-1): 22.5 µM (inactive) | GI50 (UACC-62): 12.9 µM (inactive) | GI50 (MDA-MB-231): > 36.2 µM (inactive) | GI50 (T47D): 17.7 µM (inactive)
